Results on 15 molecules are retold here after patent EP4663640A1 (Shanghai Institute of Materia Medica, Chinese Academy of …, priority 2023, dated 2024).

Data set [1] has as its target T1, hTRPC5 (Homo sapiens, UniProt Q9UL62).
T1 construct: expressed in transfected cells; host or cells: HEK-293
T1 sequence (Q9UL62 1-973): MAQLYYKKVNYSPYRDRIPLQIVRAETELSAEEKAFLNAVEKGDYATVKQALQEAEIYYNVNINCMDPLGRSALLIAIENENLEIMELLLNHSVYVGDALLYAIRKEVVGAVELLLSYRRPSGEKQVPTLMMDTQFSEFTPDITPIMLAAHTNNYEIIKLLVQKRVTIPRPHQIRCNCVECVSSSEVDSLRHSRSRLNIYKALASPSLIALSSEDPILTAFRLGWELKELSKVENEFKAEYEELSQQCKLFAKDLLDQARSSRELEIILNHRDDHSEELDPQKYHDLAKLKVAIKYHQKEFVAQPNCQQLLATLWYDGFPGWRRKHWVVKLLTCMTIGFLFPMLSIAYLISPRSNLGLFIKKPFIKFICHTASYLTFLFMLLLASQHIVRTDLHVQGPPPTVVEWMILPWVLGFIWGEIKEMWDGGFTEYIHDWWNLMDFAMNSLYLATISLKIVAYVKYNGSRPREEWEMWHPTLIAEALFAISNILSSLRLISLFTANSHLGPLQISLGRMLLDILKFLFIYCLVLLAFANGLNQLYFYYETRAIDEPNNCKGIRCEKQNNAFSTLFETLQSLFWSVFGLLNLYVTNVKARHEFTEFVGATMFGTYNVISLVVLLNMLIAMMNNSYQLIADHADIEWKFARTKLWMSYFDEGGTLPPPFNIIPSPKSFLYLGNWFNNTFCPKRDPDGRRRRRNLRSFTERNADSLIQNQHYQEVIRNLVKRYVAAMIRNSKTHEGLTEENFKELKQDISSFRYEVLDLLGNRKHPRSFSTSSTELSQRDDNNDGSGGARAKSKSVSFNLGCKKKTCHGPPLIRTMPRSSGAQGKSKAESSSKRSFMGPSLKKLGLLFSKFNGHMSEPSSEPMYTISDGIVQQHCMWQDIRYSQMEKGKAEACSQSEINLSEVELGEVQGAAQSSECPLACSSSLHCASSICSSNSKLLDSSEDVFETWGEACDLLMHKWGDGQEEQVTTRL
The data set is described as follows: TRPC5 agonist activity assay (FLIPR calcium fluorescence). The format is cell-based. As to conditions: Table 2, agonist activity on TRPC5 channels. How it is done:
HEK-293 cells expressing hTRPC5 were seeded into PDL-coated black-walled 96-well plates, with 2×10^4 cells per well. After 8 hours of culture, the original culture medium was discarded, and 60 µL of 4 µM Fluo-4/AM dye was added immediately. The cells were incubated at 37 °C for 60 minutes, and then rinsed with calcium flow detection buffer 5 times. The cell plates were placed in FLIPR®TETRA (Molecular Devices, Sunnyvale, CA, USA) preheated at 30 °C, excited at a wavelength of 488 nm, and the fluorescence signals were continuously recorded in the range of 515-535 nm with a sampling frequency of 1 s. After recording for 360 seconds, solvent control and test compounds were added, and the fluorescence signal was collected for another 600 seconds. The fluorescence signal of the trajectory diagram is represented by F/F0, wherein F is the fluorescence signal at different time points, and F0 is the basic fluorescence signal, that is, the average value of the fluorescence signal at the first 10 time points. The dose-effect diagram first took F/F0 =1 as the baseline. The area under the curve of the change in fluorescence intensity after adding test compound was calculated. IC50 value was calculated using log[agonist] vs. response - Variable slope, taking into account the area under the curve and the log value of the concentration of the compound.

A short description of data set [2]: Liver microsome stability test, mouse. It is filed as in vitro ADME. As to conditions: Mouse liver microsomes; for MF %: metabolic bioavailability. The text has this: Calculation of Intrinsic Clearance: Clint = (1000 × slope)/(P); [formula]
Data set [3] can be described thus: Liver microsome stability test, human. As to conditions: for Stability Evaluation / MF %: Human liver microsomes; for MF %: metabolic bioavailability. Background: Liver microsomes are vesicles of endoplasmic reticulum, rich in cytochrome P450 enzymes.
Data set [4] in a line: Preliminary pharmacokinetic evaluation, plasma drug concentration after oral administration to mice. As to conditions: male, ICR, mouse, oral 10 mg/kg, Mean ± SD, N = 3. The format is in vivo, ICR mice. How it is done: The test compound was prepared according to the following solvent: an aqueous solution of DMSO/Tween 80/0.5% (m/v) CMC-Na at a ratio of 2:2:96 (v/v/v), with a drug concentration of 1 mg/mL. Then, the test compound was gavaged to mice at a dosage of 10 mL/kg, with a dose of 10 mg/kg. Each compound was administered to 3 mice. At 1h and 4h after administration, about 50 µL of blood was collected from the orbital venous plexus of the mouse and placed in a centrifuge tube containing EDTA-K2 anticoagulant.

The target in data set [5] is T1, hTRPC5. Description: TRPC5 inhibitory activity assay (FLIPR calcium fluorescence, Englerin A stimulation). The settings on record: Table 1, TRPC5 channels, HEK-293 cells expressing hTRPC5; read-out: FLIPR IC50. The format is cell-based. How it is done: HEK-293 cells expressing hTRPC3, hTRPC4 or hTRPC5 were seeded into black-bottomed 96-well plates coated with poly-lysine (PDL), with 2×10^4 cells per well. After 8 h of culture, the original culture medium was discarded, and 60 µL of Fluo-4/AM dye with a final concentration of 4 µM was added. The plates were incubated at 37 °C for 60 min, and then rinsed five times with calcium flow detection buffer. […] Then, the agonist Englerin A (EA) (MedChemExpress, Shanghai, China, final concentration of 0.3nM) was added, and the fluorescence signal was collected for 600 seconds. The fluorescence signal of the trajectory diagram is represented by F/F0, wherein F is the fluorescence signal at different time points, and F0 is the basic fluorescence signal, that is, the average value of the fluorescence signal at the first 10 time points. […] The area under the curve of the change in fluorescence intensity after adding EA was calculated. IC50 value was calculated using log[Inhibitor] vs. response - Variable slope, taking into account the area under the curve and the log value of the concentration of the compound.

Turning to `CC(C)n1c(=O)n(CCCO)c(=O)c2c1nc(C1CC1C1CC1)n2Cc1ccc(Cl)cc1` (stereo not drawn) [Example E14, 8-([1,1'-bis(cyclopropan)]-2-yl)-7-(4-chlorobenzyl)-1-(3-hydroxypropyl)-3-isopropyl-3,7-dihydro-1H-purine-2,6-dione], on hTRPC5 [1], the half-maximal effective concentration (EC50) was determined as 105 nM.
Still for that read-out and setting: the result for `Cn1c(=O)n(CCCO)c(=O)c2c1nc(C1=CCC(F)(F)CC1)n2Cc1ccc(Cl)cc1` [Example E37, 7-(4-chlorobenzyl)-8-(4,4-difluorocyclohex-1-en-1-yl)-1-(3-hydroxypropyl)-3-methyl-3,7-dihydro-1H-purine-2,6-dione] reads 100 to 200 nM.
Regarding `CC(C)OC1CCC(c2nc3c(c(=O)n(CCCO)c(=O)n3C)n2Cc2ccc(Cl)cc2)CC1` (stereo not drawn) [Example E7, 7-(4-chlorobenzyl)-1-(3-hydroxypropyl)-8-(4-isopropoxycyclohexyl)-3-methyl-3,7-dihydro-1H-purine-2,6-dione], the EC50 on hTRPC5 [1] came to 36.1 nM.
Regarding `Cn1c(=O)n(CCCO)c(=O)c2c1nc(C1(F)CCC(c3ccccc3)CC1)n2Cc1ccc(Cl)cc1` (stereo not drawn) [Example E54, 7-(4-chlorobenzyl)-8-(1-fluoro-4-phenylcyclohexyl)-1-(3-hydroxypropyl)-3-methyl-3,7-dihydro-1H-purine-2,6-dione], at hTRPC5 [1], the EC50 was 170 nM.
For `CC(C)OC1CCC(F)(c2nc3c(c(=O)n(CCCO)c(=O)n3C)n2Cc2ccc(Cl)cc2)CC1` (stereo not drawn) [Example E19, 7-(4-chlorobenzyl)-8-(1-fluoro-4-isopropoxycyclohexyl)-1-(3-hydroxypropyl)-3-methyl-3,7-dihydro-1H-purine-2,6-dione], the EC50 on hTRPC5 [1] was 74.5 nM.
The same measure, in the same setting: the value for `Cn1c(=O)n(CCCO)c(=O)c2c1nc(C1(F)CC(c3ccccc3)C1)n2Cc1ccc(Cl)cc1` (stereo not drawn) [Example E17, 7-(4-chlorobenzyl)-8-(1-fluoro-3-phenylcyclobutyl)-1-(3-hydroxypropyl)-3-methyl-3,7-dihydro-1H-purine-2,6-dione] was 242 nM.
Regarding `Cn1c(=O)n(CCCO)c(=O)c2c1nc(C1(F)CCC(F)(F)CC1)n2Cc1ccc(F)cc1` [Example E45, 7-(4-fluorobenzyl)-1-(3-hydroxypropyl)-3-methyl-8-(1,4,4-trifluorocyclohexyl)-3,7-dihydro-1H-purine-2,6-dione], in data set [2], the “Stability Evaluation” value is recorded as “Medium (30%<MF%<70%, medium metabolic stability)” and the MF % was found to be 59.1%. In data set [3], the “Stability Evaluation” value is given as “Medium (30%<MF%<70%, medium metabolic stability)” and the MF % was 67.0%.
With `Cn1c(=O)n(CCCO)c(=O)c2c1nc(C1(F)CCC(F)(F)CC1)n2Cc1ccc(F)cc1F` [Example E64, 7-(2,4-difluorobenzyl)-1-(3-hydroxypropyl)-3-methyl-8-(1,4,4-trifluorocyclohexyl)-3,7-dihydro-1H-purine-2,6-dione], the “Stability Evaluation” value in data set [2] is “Medium (30%<MF%<70%, medium metabolic stability)”; in data set [3] it was “Better (MF% >70%, better metabolic stability)”. The MF % in data set [2] is recorded as 56.4%; in data set [3], 72.5%.
In data set [4], `Cn1c(=O)n(CCCO)c(=O)c2c1nc(C1(F)CCC(F)(F)CC1)n2Cc1ccc(Cl)cc1F` [Example E70, 7-(4-chloro-2-fluorobenzyl)-1-(3-hydroxypropyl)-3-methyl-8-(1,4,4-trifluorocyclohexyl)-3,7-dihydro-1H-purine-2,6-dione] gave a concentration at 1 h of 1260 ± 167 ng/mL and a concentration at 4 h of 1200 ± 110 ng/mL.
`CC(C)n1c(=O)n(CCCO)c(=O)c2c1nc(C1(F)CCC(F)(F)CC1)n2Cc1ccc(F)cc1` [Example E46, 7-(4-fluorobenzyl)-1-(3-hydroxypropyl)-3-isopropyl-8-(1,4,4-trifluorocyclohexyl)-3,7-dihydro-1H-purine-2,6-dione]: in data set [4], the concentration at 1 h is 1170 ± 410 ng/mL and the concentration at 4 h is 576 ± 117 ng/mL.
Regarding `Cn1c(=O)n(CCCO)c(=O)c2c1nc(C1(F)CCC(C(F)(F)F)CC1)n2Cc1ccccc1` (stereo not drawn) [Example E63, 7-benzyl-8-(1-fluoro-4-(trifluoromethyl)cyclohexyl)-1-(3-hydroxypropyl)-3-methyl-3,7-dihydro-1H-purine-2,6-dione], the IC50 on hTRPC5 [5] is 0.86 nM. In data set [4], this molecule gave a concentration at 1 h of 2800 ± 860 ng/mL and a concentration at 4 h of 2060 ± 755 ng/mL. Besides, in data set [3], the “Stability Evaluation” value is recorded as “Better (MF% >70%, better metabolic stability)” and the MF % was 74.4%. Further, the half-life at 1 µM in data set [3] (human, liver microsomes, pH 7.4) came out at 5.18 h.
Take `Cn1c(=O)n(CCCO)c(=O)c2c1nc(C1(F)CCC(F)(F)CC1)n2Cc1ccc(Cl)cc1` [Example E38, 7-(4-chlorobenzyl)-1-(3-hydroxypropyl)-3-methyl-8-(1,4,4-trifluorocyclohexyl)-3,7-dihydro-1H-purine-2,6-dione]: in data set [2], the “Stability Evaluation” value is reported as “Medium (30%<MF%<70%, medium metabolic stability)” and the MF % worked out at 42.1%. Moreover, in data set [3], the “Stability Evaluation” value is listed as “Medium (30%<MF%<70%, medium metabolic stability)” and the MF % is reported as 50.5%.
As to `Cn1c(=O)n(CCCO)c(=O)c2c1nc(C1(F)CCC(F)(F)CC1)n2Cc1cc(F)cc(F)c1` [Example E61, 7-(3,5-difluorobenzyl)-1-(3-hydroxypropyl)-3-methyl-8-(1,4,4-trifluorocyclohexyl)-3,7-dihydro-1H-purine-2,6-dione], in data set [3], the “Stability Evaluation” value is “Better (MF% >70%, better metabolic stability)” and the MF % came out at 77.4%.
`Cn1c(=O)n(CCCO)c(=O)c2c1nc(C1(F)CCC(F)(F)CC1)n2Cc1ccc(C#N)cc1` [Example E72, 4-((1-(3-hydroxypropyl)-3-methyl-2,6-dioxo-8-(1,4,4-trifluorocyclohexyl)-1,2,3,6-tetrahydro-7H-purin-7-yl)methyl)benzonitrile]: in data set [3], the “Stability Evaluation” value is listed as “Medium (30%<MF%<70%, medium metabolic stability)” and the MF % is listed as 66.7%.
As to `Cn1c(=O)n(CCCO)c(=O)c2c1nc(C1(O)CCC(C(F)(F)F)CC1)n2Cc1ccc(Cl)cc1` (stereo not drawn) [Example E23, 7-(4-chlorobenzyl)-8-(1-hydroxy-4-(trifluoromethyl)cyclohexyl)-1-(3-hydroxypropyl)-3-methyl-3,7-dihydro-1H-purine-2,6-dione], on hTRPC5 [5], the IC50 came out at 322 nM.

By EC50 is commonly meant the concentration needed to bring the measured effect to its halfway point. In general, IC50 refers to the concentration needed to halve the response being measured. A word on the half-life: it is the time in which the quantity being followed falls by half. A lower half-life goes with fast loss.
